According to US20260356819A1, “OXOISOINDOLINYL-SUBSTITUTED […] DERIVATIVE AND USE THEREOF” (GLUETACS THERAPEUTICS (SHANGHAI) CO., LTD., priority 2023, published 2026):

Columns and labels:
Format in all cases: cell-based
Settings in all cases: compounds at 50 nM and 500 nM
IKZF3 = target: T1, IKZF3 (Homo sapiens, UniProt Q96SW2+Q9UKT9); test: Western blot degradation of IKZF3 in hPBMCs (24 h)
T1 construct: The supernatant was aspirated as the extracted total cell protein; endogenous in cells; host or cells: human peripheral blood mononuclear cells (hPBMCs)
T1 sequence (Q9UKT9 whole entry): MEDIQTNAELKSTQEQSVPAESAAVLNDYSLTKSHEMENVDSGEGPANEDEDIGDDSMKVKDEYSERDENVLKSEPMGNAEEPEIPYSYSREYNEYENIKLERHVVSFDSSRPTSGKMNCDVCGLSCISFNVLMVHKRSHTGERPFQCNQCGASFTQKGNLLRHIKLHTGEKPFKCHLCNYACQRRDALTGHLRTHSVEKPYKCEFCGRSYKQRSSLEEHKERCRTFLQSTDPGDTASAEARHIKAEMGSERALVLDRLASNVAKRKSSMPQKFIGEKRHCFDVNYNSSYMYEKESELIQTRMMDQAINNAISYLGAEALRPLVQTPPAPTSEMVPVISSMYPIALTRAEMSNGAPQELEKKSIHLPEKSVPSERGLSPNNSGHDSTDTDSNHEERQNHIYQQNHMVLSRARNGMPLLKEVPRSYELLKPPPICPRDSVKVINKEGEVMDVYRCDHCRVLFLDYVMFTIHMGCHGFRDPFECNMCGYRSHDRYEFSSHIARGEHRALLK
T1 sequence (Q96SW2 whole entry): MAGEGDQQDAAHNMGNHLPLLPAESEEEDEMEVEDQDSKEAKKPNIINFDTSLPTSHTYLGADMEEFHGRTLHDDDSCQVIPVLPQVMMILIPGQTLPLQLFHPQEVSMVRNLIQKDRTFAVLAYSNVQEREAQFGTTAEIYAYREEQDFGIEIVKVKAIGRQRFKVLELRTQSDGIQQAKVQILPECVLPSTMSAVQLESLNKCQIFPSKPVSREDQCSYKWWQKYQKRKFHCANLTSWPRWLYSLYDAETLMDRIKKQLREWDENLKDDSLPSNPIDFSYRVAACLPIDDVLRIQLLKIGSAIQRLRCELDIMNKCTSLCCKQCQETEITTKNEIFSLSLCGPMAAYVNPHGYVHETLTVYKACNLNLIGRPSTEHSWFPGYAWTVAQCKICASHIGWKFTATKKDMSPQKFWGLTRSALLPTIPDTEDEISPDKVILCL
T1 sequence (Q16531 whole entry partner): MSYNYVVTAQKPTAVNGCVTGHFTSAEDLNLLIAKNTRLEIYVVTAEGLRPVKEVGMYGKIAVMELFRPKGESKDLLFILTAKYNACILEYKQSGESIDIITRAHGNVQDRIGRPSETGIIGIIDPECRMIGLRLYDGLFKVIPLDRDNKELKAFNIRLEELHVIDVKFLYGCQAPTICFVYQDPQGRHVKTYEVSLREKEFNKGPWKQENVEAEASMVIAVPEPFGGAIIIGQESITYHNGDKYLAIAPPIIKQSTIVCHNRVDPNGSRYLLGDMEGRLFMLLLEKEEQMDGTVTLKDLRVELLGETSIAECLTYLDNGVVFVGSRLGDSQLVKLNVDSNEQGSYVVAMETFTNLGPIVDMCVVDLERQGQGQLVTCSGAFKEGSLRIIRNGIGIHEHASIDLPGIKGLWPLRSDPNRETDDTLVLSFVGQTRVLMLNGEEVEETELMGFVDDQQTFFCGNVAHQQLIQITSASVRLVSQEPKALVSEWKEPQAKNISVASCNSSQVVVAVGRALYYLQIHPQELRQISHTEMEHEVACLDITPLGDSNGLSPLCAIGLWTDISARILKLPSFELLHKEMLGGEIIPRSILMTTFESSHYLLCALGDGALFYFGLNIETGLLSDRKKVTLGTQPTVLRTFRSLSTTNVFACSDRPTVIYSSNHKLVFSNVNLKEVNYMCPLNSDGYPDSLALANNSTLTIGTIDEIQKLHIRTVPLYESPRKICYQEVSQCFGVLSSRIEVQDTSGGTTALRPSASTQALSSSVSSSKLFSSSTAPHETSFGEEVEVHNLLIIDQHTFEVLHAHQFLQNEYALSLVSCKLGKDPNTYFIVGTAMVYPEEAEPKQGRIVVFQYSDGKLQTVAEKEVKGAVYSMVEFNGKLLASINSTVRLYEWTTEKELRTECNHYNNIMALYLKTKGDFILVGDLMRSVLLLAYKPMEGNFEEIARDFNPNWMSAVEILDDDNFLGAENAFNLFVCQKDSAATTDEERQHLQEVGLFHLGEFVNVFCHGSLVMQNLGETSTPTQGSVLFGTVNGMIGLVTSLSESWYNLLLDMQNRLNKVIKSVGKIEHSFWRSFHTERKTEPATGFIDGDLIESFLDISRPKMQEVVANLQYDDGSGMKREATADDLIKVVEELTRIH
Summary of the method: (§1)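 Read-out is Western blot band grayscale, divided by internal control band and normalised to give percent target protein remaining; degradation rate is 1 minus that value. Cells were human PBMCs exposed to compound at 50 nM and 500 nM for 24 hours.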

IKZF1 = target: T2, IKZF1 (Homo sapiens, UniProt Q13422+Q96SW2); test: Western blot degradation of IKZF1 in hPBMCs (24 h)
T2 construct: The supernatant was aspirated as the extracted total cell protein; endogenous in cells; host or cells: human peripheral blood mononuclear cells (hPBMCs)
T2 sequence (Q13422 whole entry): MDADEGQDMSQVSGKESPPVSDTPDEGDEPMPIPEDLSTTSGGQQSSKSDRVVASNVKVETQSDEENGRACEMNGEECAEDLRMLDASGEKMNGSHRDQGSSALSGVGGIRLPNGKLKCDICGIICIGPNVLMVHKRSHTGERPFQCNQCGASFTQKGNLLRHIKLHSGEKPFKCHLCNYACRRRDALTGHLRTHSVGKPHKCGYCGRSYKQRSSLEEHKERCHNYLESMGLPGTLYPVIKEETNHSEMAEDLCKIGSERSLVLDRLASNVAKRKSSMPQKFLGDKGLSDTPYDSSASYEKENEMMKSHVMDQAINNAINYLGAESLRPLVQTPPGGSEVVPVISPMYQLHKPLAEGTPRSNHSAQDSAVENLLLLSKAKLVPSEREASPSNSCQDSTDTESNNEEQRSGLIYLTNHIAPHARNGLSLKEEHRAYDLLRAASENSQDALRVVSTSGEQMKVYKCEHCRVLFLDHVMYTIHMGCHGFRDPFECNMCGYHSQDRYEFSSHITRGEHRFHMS
T2 sequence (Q96SW2 whole entry): as the sequence (Q96SW2 whole entry) above
T2 sequence (Q16531 whole entry partner): as the sequence (Q16531 whole entry partner) above
Summary of the method: as §1

IKZF2 = target: T3, IKZF2 (Homo sapiens, UniProt Q96SW2+Q9UKS7); test: Western blot degradation of IKZF2 in hPBMCs (24 h)
T3 construct: The supernatant was aspirated as the extracted total cell protein; endogenous in cells; host or cells: human peripheral blood mononuclear cells (hPBMCs)
T3 sequence (Q9UKS7 whole entry): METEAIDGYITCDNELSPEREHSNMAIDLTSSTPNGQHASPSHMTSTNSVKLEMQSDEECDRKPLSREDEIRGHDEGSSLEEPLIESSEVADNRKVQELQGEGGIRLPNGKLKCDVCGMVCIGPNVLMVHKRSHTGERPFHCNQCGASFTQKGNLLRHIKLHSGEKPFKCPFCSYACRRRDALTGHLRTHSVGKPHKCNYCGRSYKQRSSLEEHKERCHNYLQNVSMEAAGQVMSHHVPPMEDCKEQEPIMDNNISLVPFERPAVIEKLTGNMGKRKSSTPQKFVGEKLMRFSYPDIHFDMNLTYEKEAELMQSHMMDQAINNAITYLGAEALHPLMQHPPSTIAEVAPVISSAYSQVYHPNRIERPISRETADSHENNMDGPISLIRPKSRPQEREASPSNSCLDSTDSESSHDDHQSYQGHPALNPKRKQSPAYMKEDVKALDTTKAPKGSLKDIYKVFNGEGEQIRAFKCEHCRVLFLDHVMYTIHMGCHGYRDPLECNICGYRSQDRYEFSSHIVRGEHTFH
T3 sequence (Q96SW2 whole entry): as the sequence (Q96SW2 whole entry) above
T3 sequence (Q16531 whole entry partner): as the sequence (Q16531 whole entry partner) above
Summary of the method: as §1

GSPT1 = target: T4, GSPT1 (Homo sapiens, UniProt P15170+Q96SW2); test: Western blot degradation of GSPT1 in hPBMCs (24 h)
T4 construct: The supernatant was aspirated as the extracted total cell protein; endogenous in cells; host or cells: human peripheral blood mononuclear cells (hPBMCs)
T4 sequence (P15170 whole entry): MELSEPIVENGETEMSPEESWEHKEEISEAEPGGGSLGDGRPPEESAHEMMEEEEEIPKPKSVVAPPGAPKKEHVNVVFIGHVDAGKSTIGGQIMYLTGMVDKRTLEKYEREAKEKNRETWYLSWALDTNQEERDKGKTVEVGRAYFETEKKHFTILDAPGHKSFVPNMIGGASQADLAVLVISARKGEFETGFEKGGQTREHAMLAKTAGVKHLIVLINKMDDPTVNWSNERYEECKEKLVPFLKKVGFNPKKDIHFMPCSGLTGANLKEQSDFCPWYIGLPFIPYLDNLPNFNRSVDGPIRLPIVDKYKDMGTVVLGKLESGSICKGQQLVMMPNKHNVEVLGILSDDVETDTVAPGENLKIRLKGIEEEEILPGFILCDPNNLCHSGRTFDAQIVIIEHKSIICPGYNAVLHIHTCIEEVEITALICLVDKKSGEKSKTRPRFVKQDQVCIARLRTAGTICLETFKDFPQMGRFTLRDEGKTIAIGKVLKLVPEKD
T4 sequence (Q96SW2 whole entry): as the sequence (Q96SW2 whole entry) above
T4 sequence (Q16531 whole entry partner): as the sequence (Q16531 whole entry partner) above
Summary of the method: as §1

CK1α = target: T5, CK1α (Homo sapiens, UniProt P48729+Q96SW2); test: Western blot degradation of CK1α in hPBMCs (24 h)
T5 construct: The supernatant was aspirated as the extracted total cell protein; endogenous in cells; host or cells: human peripheral blood mononuclear cells (hPBMCs)
T5 sequence (P48729 whole entry): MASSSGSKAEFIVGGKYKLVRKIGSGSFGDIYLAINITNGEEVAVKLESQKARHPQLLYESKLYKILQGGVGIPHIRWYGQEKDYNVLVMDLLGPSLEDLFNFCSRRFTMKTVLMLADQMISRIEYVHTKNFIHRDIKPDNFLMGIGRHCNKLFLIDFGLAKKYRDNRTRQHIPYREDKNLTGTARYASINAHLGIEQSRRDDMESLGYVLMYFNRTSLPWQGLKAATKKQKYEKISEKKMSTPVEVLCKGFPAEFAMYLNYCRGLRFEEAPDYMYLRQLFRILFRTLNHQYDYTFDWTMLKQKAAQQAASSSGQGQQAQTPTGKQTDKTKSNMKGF
T5 sequence (Q96SW2 whole entry): as the sequence (Q96SW2 whole entry) above
T5 sequence (Q16531 whole entry partner): as the sequence (Q16531 whole entry partner) above
Summary of the method: as §1

WEE1 = target: T6, WEE1 (Homo sapiens, UniProt P30291+Q96SW2); test: Western blot degradation of WEE1 in hPBMCs (24 h)
T6 construct: The supernatant was aspirated as the extracted total cell protein; endogenous in cells; host or cells: human peripheral blood mononuclear cells (hPBMCs)
Summary of the method: as §1

In the case of `O=C1CCN(N2C(=O)c3ccc(CN4CCC(c5ccc(F)cc5)CC4)cc3C2=O)C(=O)N1` [GT-06878, 2-(2,4-dioxotetrahydropyrimidin-1(2H)-yl)-5-((4-(4-fluorophenyl)piperidin-1-yl)methyl)isoindoline-1,3-dione], the “IKZF3 substrate protein remaining %” value (IKZF3) is reported as “B (80%< substrate protein remaining % ≤100%)”, the “IKZF1 substrate protein remaining %” value (IKZF1) is reported as “B (80%< substrate protein remaining % ≤100%)” and the “IKZF2 substrate protein remaining %” value (IKZF2) is reported as “B (80%< substrate protein remaining % ≤100%)”. The “GSPT1 substrate protein remaining %” value (GSPT1) was “A (0% ≤ substrate protein remaining % ≤80%)”, the “CK1α substrate protein remaining %” value (CK1α) was “A (0% ≤ substrate protein remaining % ≤80%)” and the “WEE1 substrate protein remaining %” value (WEE1) was “B (80%< substrate protein remaining % ≤100%)”.
In the case of `Cc1cc2c(C3CCN(Cc4ccc5c(c4)CN(N4CCC(=O)NC4=O)C5=O)CC3)ncnc2s1` [GT-08083, 1-(5-((4-(6-methylthieno[2,3-d]pyrimidin-4-yl)piperidin-1-yl)methyl)-1-oxoisoindolin-2-yl)dihydropyrimidine-2,4(1H,3H)-dione], the “IKZF3 substrate protein remaining %” value (IKZF3) is reported as “B (80%< substrate protein remaining % ≤100%)”, the “IKZF1 substrate protein remaining %” value (IKZF1) is reported as “B (80%< substrate protein remaining % ≤100%)” and the “IKZF2 substrate protein remaining %” value (IKZF2) is reported as “B (80%< substrate protein remaining % ≤100%)”. The “GSPT1 substrate protein remaining %” value (GSPT1) was “A (0% ≤ substrate protein remaining % ≤80%)”, the “CK1α substrate protein remaining %” value (CK1α) was “A (0% ≤ substrate protein remaining % ≤80%)” and the “WEE1 substrate protein remaining %” value (WEE1) was “B (80%< substrate protein remaining % ≤100%)”.
With `O=C1CCN(N2C(=O)c3ccc(CN4CCC(=C5CCOc6cc(F)ccc65)CC4)cc3C2=O)C(=O)N1` [GT-07685, 2-(2,4-dioxotetrahydropyrimidin-1(2H)-yl)-5-((4-(7-fluorochroman-4-ylidene)piperidin-1-yl)methyl)isoindoline-1,3-dione] the “IKZF3 substrate protein remaining %” value (IKZF3) was “B (80%< substrate protein remaining % ≤100%)”, the “IKZF1 substrate protein remaining %” value (IKZF1) was “B (80%< substrate protein remaining % ≤100%)” and the “IKZF2 substrate protein remaining %” value (IKZF2) was “B (80%< substrate protein remaining % ≤100%)”. The “GSPT1 substrate protein remaining %” value (GSPT1) was “A (0% ≤ substrate protein remaining % ≤80%)”, the “CK1α substrate protein remaining %” value (CK1α) was “B (80%< substrate protein remaining % ≤100%)” and the “WEE1 substrate protein remaining %” value (WEE1) was “B (80%< substrate protein remaining % ≤100%)”.
`O=C1CCN(N2Cc3cc(CN4CCN(C(c5ccccc5)c5ccncc5)CC4)ccc3C2=O)C(=O)N1` (stereo not drawn) [GT-04891, 1-(1-oxo-5-((4-(phenyl(pyridin-4-yl)methyl)piperazin-1-yl)methyl)isoindolin-2-yl)dihydropyrimidine-2,4(1H,3H)-dione] was tested, and the “IKZF3 substrate protein remaining %” value (IKZF3) was “B (80%< substrate protein remaining % ≤100%)”, the “IKZF1 substrate protein remaining %” value (IKZF1) was “A (0% ≤ substrate protein remaining % ≤80%)” and the “IKZF2 substrate protein remaining %” value (IKZF2) was “A (0% ≤ substrate protein remaining % ≤80%)”. For the same compound, the “GSPT1 substrate protein remaining %” value (GSPT1) was “A (0% ≤ substrate protein remaining % ≤80%)”, the “CK1α substrate protein remaining %” value (CK1α) was “B (80%< substrate protein remaining % ≤100%)” and the “WEE1 substrate protein remaining %” value (WEE1) was “B (80%< substrate protein remaining % ≤100%)”.
`COc1ccc(N2CCN(Cc3ccc4c(c3)C(=O)N(N3CCC(=O)NC3=O)C4=O)CC2)cc1` [GT-06728, 2-(2,4-dioxotetrahydropyrimidin-1(2H)-yl)-5-((4-(4-methoxyphenyl)piperazin-1-yl)methyl)isoindoline-1,3-dione] was tested, and the “IKZF3 substrate protein remaining %” value (IKZF3) was “A (0% ≤ substrate protein remaining % ≤80%)”, the “IKZF1 substrate protein remaining %” value (IKZF1) was “B (80%< substrate protein remaining % ≤100%)” and the “IKZF2 substrate protein remaining %” value (IKZF2) was “A (0% ≤ substrate protein remaining % ≤80%)”. The “GSPT1 substrate protein remaining %” value (GSPT1) was “B (80%< substrate protein remaining % ≤100%)”, the “CK1α substrate protein remaining %” value (CK1α) was “A (0% ≤ substrate protein remaining % ≤80%)” and the “WEE1 substrate protein remaining %” value (WEE1) was “B (80%< substrate protein remaining % ≤100%)”.
With `O=C1CCN(N2Cc3cc(CN4CCC(c5ncnc6sccc56)CC4)ccc3C2=O)C(=O)N1` [GT-08082, 1-(1-oxo-5-((4-(thieno[2,3-d]pyrimidin-4-yl)piperidin-1-yl)methyl)isoindolin-2-yl)dihydropyrimidine-2,4(1H,3H)-dione] the “IKZF3 substrate protein remaining %” value (IKZF3) was “B (80%< substrate protein remaining % ≤100%)”, the “IKZF1 substrate protein remaining %” value (IKZF1) was “B (80%< substrate protein remaining % ≤100%)” and the “IKZF2 substrate protein remaining %” value (IKZF2) was “B (80%< substrate protein remaining % ≤100%)”. The “GSPT1 substrate protein remaining %” value (GSPT1) was “A (0% ≤ substrate protein remaining % ≤80%)”, the “CK1α substrate protein remaining %” value (CK1α) was “A (0% ≤ substrate protein remaining % ≤80%)” and the “WEE1 substrate protein remaining %” value (WEE1) was “A (0% ≤ substrate protein remaining % ≤80%)”.
For `O=C1CCN(N2Cc3cc(CN4CCN(c5ccc(Cl)c(Cl)c5)CC4)ccc3C2=O)C(=O)N1` [GT-06775, 1-(5-((4-(3,4-dichlorophenyl)piperazin-1-yl)methyl)-1-oxoisoindolin-2-yl)dihydropyrimidine-2,4(1H,3H)-dione], the “IKZF3 substrate protein remaining %” value (IKZF3) was “A (0% ≤ substrate protein remaining % ≤80%)”, the “IKZF1 substrate protein remaining %” value (IKZF1) was “B (80%< substrate protein remaining % ≤100%)” and the “IKZF2 substrate protein remaining %” value (IKZF2) was “A (0% ≤ substrate protein remaining % ≤80%)”. The “GSPT1 substrate protein remaining %” value (GSPT1) was “A (0% ≤ substrate protein remaining % ≤80%)”, the “CK1α substrate protein remaining %” value (CK1α) was “A (0% ≤ substrate protein remaining % ≤80%)” and the “WEE1 substrate protein remaining %” value (WEE1) was “B (80%< substrate protein remaining % ≤100%)”.
With `O=C1CCN(N2Cc3cc(CN4CCC(c5noc6cc(F)ccc56)CC4)ccc3C2=O)C(=O)N1` [GT-04864, 1-(5-((4-(6-fluorobenzo[d]isoxazol-3-yl)piperidin-1-yl)methyl)-1-oxoisoindolin-2-yl)dihydropyrimidine-2,4(1H,3H)-dione] the “IKZF3 substrate protein remaining %” value (IKZF3) was “B (80%< substrate protein remaining % ≤100%)”, the “IKZF1 substrate protein remaining %” value (IKZF1) was “A (0% ≤ substrate protein remaining % ≤80%)” and the “IKZF2 substrate protein remaining %” value (IKZF2) was “B (80%< substrate protein remaining % ≤100%)”. The “GSPT1 substrate protein remaining %” value (GSPT1) was “A (0% ≤ substrate protein remaining % ≤80%)”, the “CK1α substrate protein remaining %” value (CK1α) was “B (80%< substrate protein remaining % ≤100%)” and the “WEE1 substrate protein remaining %” value (WEE1) was “B (80%< substrate protein remaining % ≤100%)”.
`O=C1CCN(N2C(=O)c3ccc(CN4CCN(c5ccnc(Cl)c5F)CC4)cc3C2=O)C(=O)N1` [GT-07166, 5-((4-(2-chloro-3-fluoropyridin-4-yl)piperazin-1-yl)methyl)-2-(2,4-dioxotetrahydropyrimidin-1(2H)-yl)isoindoline-1,3-dione] was tested, and the “IKZF3 substrate protein remaining %” value (IKZF3) was “B (80%< substrate protein remaining % ≤100%)”, the “IKZF1 substrate protein remaining %” value (IKZF1) was “B (80%< substrate protein remaining % ≤100%)” and the “IKZF2 substrate protein remaining %” value (IKZF2) was “A (0% ≤ substrate protein remaining % ≤80%)”. The “GSPT1 substrate protein remaining %” value (GSPT1) was “A (0% ≤ substrate protein remaining % ≤80%)”, the “CK1α substrate protein remaining %” value (CK1α) was “B (80%< substrate protein remaining % ≤100%)” and the “WEE1 substrate protein remaining %” value (WEE1) was “B (80%< substrate protein remaining % ≤100%)”.
